According to paper PMC12298648, “An Evaluation of the Cytotoxicity and Safety Profile of Usnic Acid for a Broad Panel of Human Cancers and Normal Cells with Respect to Its Enantiospecificity” (Molecules, 2025):
Values after ≈ are worked out from the molar mass of the structure shown.

Tests used:
MDA-MB-231 = assay: MTT viability assay, MDA-MB-231 breast cancer cells; assay type: cell-based, human; details: for IC50: Homo sapiens; for Cell viability: MDA-MB-231, 24 h
Description: (§1) Cell lines of different origins were used in the study and grouped as follows: prostate panel (human prostate carcinomas: DU145, derived from metastatic site: brain; grade IV PC3, derived from metastatic site: bone; LNCaP, derived from the metastatic site: lymph node; prostate epithelial, PNT2), colon panel (colorectal adenocarcinomas: HT29, originating from a primary tumor; Duke’s type C DLD-1, with the potential to lymph node metastasis; highly metastatic HCT116; colon epithelial cells CCD 841 CoN), thyroid panel (follicular thyroid carcinoma FTC133, anaplastic thyroid carcinoma 8505C, papillary thyroid carcinoma TPC-1, normal thyroid follicular epithelial Nthy-ori 3–1), breast panel (ER-positive breast adenocarcinoma MCF7, ER-negative breast adenocarcinoma MDA-MB-231, breast epithelial MCF10A), brain panel (neuroblastoma SH-SY5Y, glioblastoma U-87 MG, murine astrocytes C8D1A). All cell lines were purchased from Merck (Darmstadt, Germany).
(§2) Cells were grown under standard conditions (37 °C, 5% CO2) and culture media (DMEM/F12 for PNT2, PC3, FTC133, 8505 C, MDA-MB-231, TPC-1; DMEM Low Glucose for DU145; DMEM High Glucose for HCT116, DLD-1, SH-SY5Y, U87MG, C8D1A; MEM with NEAA for MCF7; MEM for CCD 841 CoN; McCoy’s for HT29; RPMI1640 with sodium pyruvate for LNCaP; DMEM/F12 with 20 ng/mL epidermal growth factor (EGF), 10 μg/mL insulin, 0.5 μg/mL hydrocortisone, 100 ng/mL cholera toxin) for MCF10A), supplemented with 10% fetal bovine serum (FBS) or 5% donor horse serum for MCF10A, and 1% antibiotics solution (10,000 U penicillin and 10 mg streptomycin/mL). The tested substances were prepared as 10 mg/mL stock solutions in DMSO and further diluted in the culture media to the working concentrations. Cells were treated with UA enantiomers at the concentration range of 0–50 µg/mL. The influence of DMSO on cell viability was also examined, with the final concentration […], and no toxic effect was noted.
(§3) The cells were seeded onto 96-well plates at a density of 1.5 × 10^4 cells/well. After 24 h UA enantiomers were added. Cell viability was determined after 24, 48, and 72 h by the MTT assay, as described previously. Doxorubicin was used as a reference cytostatic drug. All analyses were performed in triplicate; cell viability was expressed as % of control, untreated cells (mean ± SD), and IC50 values (concentration at which cell viability is inhibited by 50%), if possible.
(§4) The selectivity index (SI) was calculated, if possible, by dividing the IC50 value obtained for non-cancerous cells line by the IC50 values obtained for appropriate cancer cell line, as described previously. […] The values above 3 indicate good selectivity.

SH-SY5Y = assay: MTT viability assay, neuroblastoma SH-SY5Y cells; assay type: cell-based, human; details: SHSY5Y, 24 h
Description: as §1, §2, §3

FTC133 = assay: MTT viability assay, FTC133 follicular thyroid carcinoma cells; assay type: cell-based, human; details: for Cell viability: FTC-133, 24 h; for IC50: Homo sapiens, FTC-133
Description: as §1, §2, §3, §4

TPC-1 = assay: MTT viability assay, TPC-1 papillary thyroid carcinoma cells; assay type: cell-based, human; details: for IC50: Homo sapiens, TPC1; for Cell viability: TPC-1, 24 h
Description: as §1, §2, §3, §4

C8D1A = assay: MTT viability assay, normal astrocytes C8D1A; assay type: cell-based, murine; details: C8D1A, 24 h
Description: as §1, §2, §3

PC3 = assay: MTT viability assay, PC3 prostate cancer cells; assay type: cell-based, human; details: for IC50: Homo sapiens, PC-3; for Cell viability: PC3, 24 h
Description: as §1, §2, §3, §4

MCF10A = assay: MTT viability assay, normal breast epithelial cells; assay type: cell-based, human; details: for IC50: Homo sapiens, MCF-10A, MCF10A normal cells; for Cell viability: MCF10A, 24 h
Description: as §1, §2, §3

U87MG = assay: MTT viability assay, glioblastoma U87MG cells; assay type: cell-based, human; details: 24 h
Description: as §1, §2, §3

HCT116 = assay: MTT viability assay, HCT116 colon cancer cells; assay type: cell-based, human; details: for Cell viability: HCT116, 24 h; for IC50: Homo sapiens, HCT-116
Description: as §1, §2, §3

CC(=O)C1=C(O)C=C2Oc3c(C(C)=O)c(O)c(C)c(O)c3[C@@]2(C)C1=O [UA(+), (+)-usnic acid]
IC50 (MDA-MB-231; MDA-MB-231, 48 h): > 50 µg/mL
IC50 (MDA-MB-231; MDA-MB-231, 72 h): 15.8 µg/mL (≈ 45.9 µM)
selectivity index (SI) (MDA-MB-231; IC50 MCF10A / IC50 MDA-MB-231, 72 h): 2.83
Cell viability (MDA-MB-231; 2.5 µg/mL): 100.36 % of control
Cell viability (MDA-MB-231; 5 µg/mL): 95.55 % of control
Cell viability (MDA-MB-231; 10 µg/mL): 87.62 % of control
Cell viability (MDA-MB-231; 20 µg/mL): 81.99 % of control
Cell viability (MDA-MB-231; 30 µg/mL): 77.62 % of control
Cell viability (MDA-MB-231; 40 µg/mL): 67.93 % of control
Cell viability (MDA-MB-231; 50 µg/mL): 69.24 % of control
Cell viability (SH-SY5Y; 2.5 µg/mL): 99.49 % of control
Cell viability (SH-SY5Y; 5 µg/mL): 97.56 % of control
Cell viability (SH-SY5Y; 10 µg/mL): 97.95 % of control
Cell viability (SH-SY5Y; 20 µg/mL): 96.15 % of control
Cell viability (SH-SY5Y; 30 µg/mL): 95.77 % of control
Cell viability (SH-SY5Y; 40 µg/mL): 92.95 % of control
Cell viability (SH-SY5Y; 50 µg/mL): 96.54 % of control
Cell viability (FTC133; 2.5 µg/mL): 92.33 % of control
Cell viability (FTC133; 5 µg/mL): 89.00 % of control
Cell viability (FTC133; 10 µg/mL): 89.83 % of control
Cell viability (FTC133; 20 µg/mL): 93.83 % of control
Cell viability (FTC133; 30 µg/mL): 74.75 % of control
Cell viability (FTC133; 40 µg/mL): 75.75 % of control
Cell viability (FTC133; 50 µg/mL): 78.08 % of control
IC50 (FTC133; FTC133, 48 h): > 50 µg/mL
IC50 (FTC133; FTC133, 72 h): 35.1 µg/mL (≈ 102 µM)
selectivity index (SI) (FTC133; IC50 Nthy ori 3-1 / IC50 FTC133, 72 h): 0.95
IC50 (TPC-1; TPC-1, 48 h): > 50 µg/mL
IC50 (TPC-1; TPC-1, 72 h): 28.2 µg/mL (≈ 81.9 µM)
selectivity index (SI) (TPC-1; IC50 Nthy ori 3-1 / IC50 TPC-1, 72 h): 1.18
Cell viability (TPC-1; 2.5 µg/mL): 101.62 % of control
Cell viability (TPC-1; 5 µg/mL): 105.96 % of control
Cell viability (TPC-1; 10 µg/mL): 105.31 % of control
Cell viability (TPC-1; 20 µg/mL): 97.02 % of control
Cell viability (TPC-1; 30 µg/mL): 95.96 % of control
Cell viability (TPC-1; 40 µg/mL): 91.23 % of control
Cell viability (TPC-1; 50 µg/mL): 87.50 % of control
Cell viability (C8D1A; 2.5 µg/mL): 110.33 % of control
Cell viability (C8D1A; 5 µg/mL): 110.17 % of control
Cell viability (C8D1A; 10 µg/mL): 96.58 % of control
Cell viability (C8D1A; 20 µg/mL): 91.17 % of control
Cell viability (C8D1A; 30 µg/mL): 88.67 % of control
Cell viability (C8D1A; 40 µg/mL): 86.17 % of control
Cell viability (C8D1A; 50 µg/mL): 106.42 % of control
IC50 (PC3; PC3, 48 h): 39.6 µg/mL (≈ 115 µM)
IC50 (PC3; PC3, 72 h): 19.1 µg/mL (≈ 55.5 µM)
selectivity index (SI) (PC3; IC50 PNT2 / IC50 PC3, 48 h): 0.94
selectivity index (SI) (PC3; IC50 PNT2 / IC50 PC3, 72 h): 1.07
Cell viability (PC3; 2.5 µg/mL): 100.80 % of control
Cell viability (PC3; 5 µg/mL): 99.30 % of control
Cell viability (PC3; 10 µg/mL): 104.63 % of control
Cell viability (PC3; 20 µg/mL): 96.62 % of control
Cell viability (PC3; 30 µg/mL): 83.08 % of control
Cell viability (PC3; 40 µg/mL): 70.10 % of control
Cell viability (PC3; 50 µg/mL): 64.83 % of control
IC50 (MCF10A; 48 h): > 50 µg/mL
IC50 (MCF10A; 72 h): 44.8 µg/mL (≈ 130 µM)
Cell viability (MCF10A; 2.5 µg/mL): 95.69 % of control
Cell viability (MCF10A; 5 µg/mL): 98.53 % of control
Cell viability (MCF10A; 10 µg/mL): 94.31 % of control
Cell viability (MCF10A; 20 µg/mL): 97.06 % of control
Cell viability (MCF10A; 30 µg/mL): 97.25 % of control
Cell viability (MCF10A; 40 µg/mL): 97.35 % of control
Cell viability (MCF10A; 50 µg/mL): 94.02 % of control
Cell viability (U87MG; 5 µg/mL): 99.21 % of control
Cell viability (U87MG; 10 µg/mL): 98.61 % of control
Cell viability (U87MG; 30 µg/mL): 101.76 % of control
Cell viability (U87MG; 40 µg/mL): 92.73 % of control
Cell viability (U87MG; 50 µg/mL): 95.00 % of control
Cell viability (HCT116; 2.5 µg/mL): 100.35 % of control
Cell viability (HCT116; 5 µg/mL): 103.97 % of control
Cell viability (HCT116; 10 µg/mL): 85.60 % of control
Cell viability (HCT116; 20 µg/mL): 71.99 % of control
Cell viability (HCT116; 30 µg/mL): 68.16 % of control
Cell viability (HCT116; 40 µg/mL): 67.02 % of control
Cell viability (HCT116; 50 µg/mL): 61.49 % of control
IC50 (HCT116; HCT116, 48 h): 26.4 µg/mL (≈ 76.7 µM)
IC50 (HCT116; HCT116, 72 h): 10.5 µg/mL (≈ 30.5 µM)
